Results reported in ChEMBL document CHEMBL1141955, “Geometric diversity through permutation of backbone configuration in cyclic peptide libraries” (Bioorg Med Chem Lett, 2005).

Biological target: Actin, cytoplasmic 1 (Xenopus laevis, UniProt O93400)
Test: Inhibitory activity against actin assembly in xenopus by polymerisation assay; call rule not given here

Row | IC50 | IC50 (read-out: IC50) | SMILES
1 | Not Active | – | NCCCC[C@@H]1NC(=O)[C@H](CCC(N)=O)NC(=O)[C@H]2CCCN2C(=O)[C@H](Cc2ccccc2)NC(=O)[C@@H](Cc2ccccc2)NC(=O)[C@H]2CCCN2C(=O)[C@@H](Cc2ccccc2)NC1=O
2 | – | 2000 nM | NCCCC[C@@H]1NC(=O)[C@H](CCC(N)=O)NC(=O)[C@H]2CCCN2C(=O)[C@H](Cc2ccccc2)NC(=O)[C@@H](Cc2ccccc2)NC(=O)[C@H]2CCCN2C(=O)[C@@H](Cc2ccccc2)NC(=O)[C@H](CCCCN)NC(=O)[C@H](CCC(N)=O)NC(=O)[C@H]2CCCN2C(=O)[C@H](Cc2ccccc2)NC(=O)[C@@H](Cc2ccccc2)NC(=O)[C@H]2CCCN2C(=O)[C@@H](Cc2ccccc2)NC1=O
